From PMC5999115, “Anti-tumor activity of phenoxybenzamine and its inhibition of histone deacetylases” (PLoS ONE, 2018)

Key:
Assay in all cases: Oncotest CellTiter-Blue cell viability assay, 72 hours
Format in all cases: cell-based, human
CNXF U-251 = tested on: CNXF U-251
Method: (§1) Further studies with varying drug concentrations on selected human cell lines, in most cases those studied in the NCI60 screen, were conducted by Oncotest GmbH laboratories, Freiburg, Germany; Oncotest is a division of Charles River Laboratories. The dissolution procedure for PBZ and the cell culture […] was 72 hours; anti-tumor activity was determined with the CellTiter-Blue® Cell Viability Assay, Promega, Mannheim, Germany. The 50% Inhibitory (IC50) concentrations were determined. The results are the average of duplicate assays. Paclitaxel was included as a reference compound to confirm the integrity of the assays. See S1 Appendix for further details.
(§2) “Cell lines were routinely passaged once or twice weekly and maintained in culture for up to 20 passages. Cells were grown at 37°C in a humidified atmosphere with 5% CO2 in RPMI 1640 medium (25 mM HEPES, with L-glutamine, #FG1385, Biochrom, Berlin, Germany) supplemented with 10% (v/v) fetal calf serum (Sigma, Taufkirchen, Germany) and 0.1 mg/mL gentamicin (Life Technologies, Karlsruhe, Germany).”

LXFS DMS 273 = tested on: LXFS DMS 273
Method: as §1, §2

LYXF DLBC SU-DHL-1 = tested on: LYXF DLBC SU-DHL-1
Method: as §1, §2

MEXF UACC-257 = tested on: MEXF UACC-257
Method: as §1, §2

[1] = CNXF U-251, 1% FCS, study P495C
[2] = CNXF U-251, 10% FCS, study P495A
[3] = LXFS DMS273, 1% FCS, study P495C
[4] = LXFS DMS273, 10% FCS, study P495A
[5] = LYXF SU-DHL-1, 1% FCS, study P495C
[6] = LYXF SU-DHL-1, 10% FCS, study P495B
[7] = MEXF UACC-257, 1% FCS, study P495C
[8] = MEXF UACC-257, 10% FCS, study P495A

SMILES: CC(COc1ccccc1)N(CCCl)Cc1ccccc1 (centres unmarked) [PBZ, phenoxybenzamine]
- Test/Control (%) at Drug Concentration [uM] 1,0E+00 (CNXF U-251; [1]): 98%
- Test/Control (%) at Drug Concentration [uM] 1,0E+01 (CNXF U-251; [1]): 102%
- Test/Control (%) at Drug Concentration [uM] 1,0E+02 (CNXF U-251; [1]): 36%
- Test/Control (%) at Drug Concentration [uM] 3,2E+00 (CNXF U-251; [1]): 102%
- Test/Control (%) at Drug Concentration [uM] 3,2E+01 (CNXF U-251; [1]): 98%
- Test/Control (%) at Drug Concentration [uM] 1,0E+00 (CNXF U-251; [2]): 92%
- Test/Control (%) at Drug Concentration [uM] 1,0E+01 (CNXF U-251; [2]): 103%
- Test/Control (%) at Drug Concentration [uM] 1,0E+02 (CNXF U-251; [2]): 98%
- Test/Control (%) at Drug Concentration [uM] 1,0E-01 (CNXF U-251; [2]): 90%
- Test/Control (%) at Drug Concentration [uM] 1,0E-02 (CNXF U-251; [2]): 90%
- Test/Control (%) at Drug Concentration [uM] 3,2E+00 (CNXF U-251; [2]): 94%
- Test/Control (%) at Drug Concentration [uM] 3,2E+01 (CNXF U-251; [2]): 118%
- Test/Control (%) at Drug Concentration [uM] 3,2E-01 (CNXF U-251; [2]): 93%
- Test/Control (%) at Drug Concentration [uM] 3,2E-02 (CNXF U-251; [2]): 93%
- Test/Control (%) at Drug Concentration [uM] 3,2E-03 (CNXF U-251; [2]): 85%
- IC50 (CNXF U-251; Homo sapiens, CNXF U-251 CNS, 1% FCS): 83.1 µM
- IC50 (LXFS DMS 273; Homo sapiens, LXFS DMS 273 Small-cell lung, 1% FCS): 99.8 µM
- Test/Control (%) at Drug Concentration [uM] 1,0E+00 (LXFS DMS 273; [3]): 104%
- Test/Control (%) at Drug Concentration [uM] 1,0E+01 (LXFS DMS 273; [3]): 91%
- Test/Control (%) at Drug Concentration [uM] 1,0E+02 (LXFS DMS 273; [3]): 49%
- Test/Control (%) at Drug Concentration [uM] 3,2E+00 (LXFS DMS 273; [3]): 101%
- Test/Control (%) at Drug Concentration [uM] 3,2E+01 (LXFS DMS 273; [3]): 100%
- Test/Control (%) at Drug Concentration [uM] 1,0E+00 (LXFS DMS 273; [4]): 76%
- Test/Control (%) at Drug Concentration [uM] 1,0E+01 (LXFS DMS 273; [4]): 82%
- Test/Control (%) at Drug Concentration [uM] 1,0E+02 (LXFS DMS 273; [4]): 105%
- Test/Control (%) at Drug Concentration [uM] 1,0E-01 (LXFS DMS 273; [4]): 81%
- Test/Control (%) at Drug Concentration [uM] 1,0E-02 (LXFS DMS 273; [4]): 75%
- Test/Control (%) at Drug Concentration [uM] 3,2E+00 (LXFS DMS 273; [4]): 87%
- Test/Control (%) at Drug Concentration [uM] 3,2E+01 (LXFS DMS 273; [4]): 100%
- Test/Control (%) at Drug Concentration [uM] 3,2E-01 (LXFS DMS 273; [4]): 80%
- Test/Control (%) at Drug Concentration [uM] 3,2E-02 (LXFS DMS 273; [4]): 74%
- Test/Control (%) at Drug Concentration [uM] 3,2E-03 (LXFS DMS 273; [4]): 83%
- IC50 (LYXF DLBC SU-DHL-1; Homo sapiens, LYXFDLBC SU-DHL-1 Lymphoma, 1% FCS): 29.5 µM
- Test/Control (%) at Drug Concentration [uM] 1,0E+00 (LYXF DLBC SU-DHL-1; [5]): 97%
- Test/Control (%) at Drug Concentration [uM] 1,0E+01 (LYXF DLBC SU-DHL-1; [5]): 91%
- Test/Control (%) at Drug Concentration [uM] 1,0E+02 (LYXF DLBC SU-DHL-1; [5]): 7%
- Test/Control (%) at Drug Concentration [uM] 3,2E+00 (LYXF DLBC SU-DHL-1; [5]): 96%
- Test/Control (%) at Drug Concentration [uM] 3,2E+01 (LYXF DLBC SU-DHL-1; [5]): 45%
- Test/Control (%) at Drug Concentration [uM] 1,0E+00 (LYXF DLBC SU-DHL-1; [6]): 98%
- Test/Control (%) at Drug Concentration [uM] 1,0E+01 (LYXF DLBC SU-DHL-1; [6]): 100%
- Test/Control (%) at Drug Concentration [uM] 1,0E+02 (LYXF DLBC SU-DHL-1; [6]): 0%
- Test/Control (%) at Drug Concentration [uM] 1,0E-01 (LYXF DLBC SU-DHL-1; [6]): 100%
- Test/Control (%) at Drug Concentration [uM] 1,0E-02 (LYXF DLBC SU-DHL-1; [6]): 100%
- Test/Control (%) at Drug Concentration [uM] 1,0E-03 (LYXF DLBC SU-DHL-1; [6]): 100%
- Test/Control (%) at Drug Concentration [uM] 3,2E+00 (LYXF DLBC SU-DHL-1; [6]): 100%
- Test/Control (%) at Drug Concentration [uM] 3,2E+01 (LYXF DLBC SU-DHL-1; [6]): 94%
- Percent cell growth in Oncotest screen with 10% FCS (72 hr incubation) (MEXF UACC-257; 10 μM phenoxybenzamine, UACC-257): 107%
- IC50 (MEXF UACC-257; Homo sapiens, MEXF UACC-257 Melanoma, 1% FCS): 49.8 µM
- Test/Control (%) at Drug Concentration [uM] 1,0E+00 (MEXF UACC-257; [7]): 101%
- Test/Control (%) at Drug Concentration [uM] 1,0E+01 (MEXF UACC-257; [7]): 107%
- Test/Control (%) at Drug Concentration [uM] 1,0E+02 (MEXF UACC-257; [7]): 41%
- Test/Control (%) at Drug Concentration [uM] 3,2E+00 (MEXF UACC-257; [7]): 106%
- Test/Control (%) at Drug Concentration [uM] 3,2E+01 (MEXF UACC-257; [7]): 77%
- Test/Control (%) at Drug Concentration [uM] 1,0E+00 (MEXF UACC-257; [8]): 101%
- Test/Control (%) at Drug Concentration [uM] 1,0E+01 (MEXF UACC-257; [8]): 107%
- Test/Control (%) at Drug Concentration [uM] 1,0E+02 (MEXF UACC-257; [8]): 68%
